In ChEMBL document CHEMBL4330132, “5-Keto-3-cyano-2,4-diaminothiophenes as selective maternal embryonic leucine zipper kinase inhibitors” (Bioorg Med Chem Lett, 2019):

What was measured:
[1] = biological target: Tyrosine-protein kinase Lyn (Homo sapiens) (UniProt P07948); test: Binding affinity to wild-type human partial length LYN (C219 to Q511 residues) expressed in bacterial expression system assessed as residual binding level at 1 uM by Kinomescan method relative to control
[2] = biological target: Macrophage-stimulating protein receptor (Homo sapiens) (UniProt Q04912); test: Binding affinity to wild-type human partial length MST1R (I1057 to L1363 residues) expressed in bacterial expression system assessed as residual binding level at 1 uM by Kinomescan method relative to control
Chain of Macrophage-stimulating protein receptor (Homo sapiens) (Q04912 25-304 limits assumed): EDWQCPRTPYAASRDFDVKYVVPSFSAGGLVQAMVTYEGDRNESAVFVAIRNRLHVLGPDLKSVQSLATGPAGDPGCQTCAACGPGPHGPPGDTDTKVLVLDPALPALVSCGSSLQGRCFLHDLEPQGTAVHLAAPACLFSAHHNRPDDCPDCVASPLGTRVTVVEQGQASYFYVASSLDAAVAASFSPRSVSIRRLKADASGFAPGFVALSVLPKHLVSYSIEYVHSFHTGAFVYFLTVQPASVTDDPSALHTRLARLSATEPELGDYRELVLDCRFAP
Chain of Macrophage-stimulating protein receptor (Homo sapiens) (Q04912 310-1400 limits assumed): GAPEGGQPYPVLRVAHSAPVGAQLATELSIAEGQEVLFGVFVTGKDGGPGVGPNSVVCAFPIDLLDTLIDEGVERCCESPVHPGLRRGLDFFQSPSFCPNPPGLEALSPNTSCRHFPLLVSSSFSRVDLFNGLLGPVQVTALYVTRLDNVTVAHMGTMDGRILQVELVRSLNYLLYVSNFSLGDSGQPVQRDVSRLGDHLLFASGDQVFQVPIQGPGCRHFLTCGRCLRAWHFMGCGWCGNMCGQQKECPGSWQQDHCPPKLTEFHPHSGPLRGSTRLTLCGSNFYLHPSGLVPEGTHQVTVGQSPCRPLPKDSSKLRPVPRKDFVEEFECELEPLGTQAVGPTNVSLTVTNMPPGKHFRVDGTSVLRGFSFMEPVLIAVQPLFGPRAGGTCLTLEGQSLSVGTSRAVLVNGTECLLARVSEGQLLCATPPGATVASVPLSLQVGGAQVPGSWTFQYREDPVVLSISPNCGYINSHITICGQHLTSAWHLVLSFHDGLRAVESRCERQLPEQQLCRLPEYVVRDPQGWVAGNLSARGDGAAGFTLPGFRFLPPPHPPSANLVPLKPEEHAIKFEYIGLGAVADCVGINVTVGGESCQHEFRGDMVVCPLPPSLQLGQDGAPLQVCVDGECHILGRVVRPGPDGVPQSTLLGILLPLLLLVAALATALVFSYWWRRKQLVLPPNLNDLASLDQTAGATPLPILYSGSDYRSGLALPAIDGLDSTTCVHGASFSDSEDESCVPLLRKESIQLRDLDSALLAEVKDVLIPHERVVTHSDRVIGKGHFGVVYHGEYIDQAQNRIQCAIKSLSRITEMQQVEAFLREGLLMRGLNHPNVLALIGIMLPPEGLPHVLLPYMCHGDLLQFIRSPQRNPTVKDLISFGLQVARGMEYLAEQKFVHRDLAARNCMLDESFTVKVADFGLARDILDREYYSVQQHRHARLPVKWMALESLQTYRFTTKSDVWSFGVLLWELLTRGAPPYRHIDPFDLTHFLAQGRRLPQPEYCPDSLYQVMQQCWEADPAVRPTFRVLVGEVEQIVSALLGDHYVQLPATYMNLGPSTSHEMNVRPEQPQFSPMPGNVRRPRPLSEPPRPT

[3] = biological target: Ribosomal protein S6 kinase alpha-6 (Homo sapiens) (UniProt Q9UK32); test: Binding affinity to wild-type human partial length N-terminal RSK4 kinase domain 1 (M1 to E397 residues) expressed in mammalian expression system assessed as residual binding level at 1 uM by Kinomescan method relative to control
[4] = biological target: Tyrosine-protein kinase Mer (Homo sapiens) (UniProt Q12866); test: Binding affinity to wild-type human partial length MERTK (R557 to L884 residues) expressed in bacterial expression system assessed as residual binding level at 1 uM by Kinomescan method relative to control
[5] = tested on: Epidermal growth factor receptor (Homo sapiens), P00533 [G719S]; test: Binding affinity to human partial length EGFR G719S mutant (R669 to V1011 residues) expressed in bacterial expression system assessed as residual binding level at 1 uM by Kinomescan method relative to control
[6] = biological target: Ribosomal protein S6 kinase alpha-1 (Homo sapiens) (UniProt Q15418); test: Binding affinity to wild-type human partial length N-terminal RSK1 Kinase domain 1 (M1 to E388 residues) expressed in bacterial expression system assessed as residual binding level at 1 uM by Kinomescan method relative to control
[7] = biological target: Protein-tyrosine kinase 6 (Homo sapiens) (UniProt Q13882); test: Binding affinity to wild-type human partial length BRK (L166 to T451 residues) expressed in bacterial expression system assessed as residual binding level at 1 uM by Kinomescan method relative to control
[8] = biological target: Activin receptor type-2A (Homo sapiens) (UniProt P27037); test: Binding affinity to wild-type human ACVR2A (V171 to T499 residues) expressed in bacterial expression system assessed as residual binding level at 1 uM by Kinomescan method relative to control
[9] = biological target: Non-receptor tyrosine-protein kinase TNK1 (Homo sapiens) (UniProt Q13470); test: Binding affinity to wild-type human full length TNK1 (M1 to P661 residues) expressed in bacterial expression system assessed as residual binding level at 1 uM by Kinomescan method relative to control
Chain of Non-receptor tyrosine-protein kinase TNK1 (Homo sapiens) (Q13470 whole entry, the tested form may be a part): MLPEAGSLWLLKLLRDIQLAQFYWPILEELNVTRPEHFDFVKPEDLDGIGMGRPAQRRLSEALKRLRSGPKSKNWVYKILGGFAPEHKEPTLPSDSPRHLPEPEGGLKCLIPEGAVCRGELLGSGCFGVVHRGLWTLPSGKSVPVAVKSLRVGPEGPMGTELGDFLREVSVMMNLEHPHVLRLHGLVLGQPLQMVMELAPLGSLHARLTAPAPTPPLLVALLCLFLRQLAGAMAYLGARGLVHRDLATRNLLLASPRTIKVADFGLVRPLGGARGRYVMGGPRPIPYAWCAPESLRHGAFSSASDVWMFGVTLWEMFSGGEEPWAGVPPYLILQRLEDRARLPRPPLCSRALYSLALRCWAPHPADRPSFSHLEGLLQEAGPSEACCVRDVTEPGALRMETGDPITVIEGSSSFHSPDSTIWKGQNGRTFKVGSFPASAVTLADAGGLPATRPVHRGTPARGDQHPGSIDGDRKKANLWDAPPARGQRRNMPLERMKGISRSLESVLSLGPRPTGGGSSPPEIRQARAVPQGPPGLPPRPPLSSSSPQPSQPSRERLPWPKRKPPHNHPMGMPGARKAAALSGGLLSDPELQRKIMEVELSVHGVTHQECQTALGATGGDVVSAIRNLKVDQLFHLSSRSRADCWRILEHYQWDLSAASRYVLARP

[10] = biological target: Serine/threonine-protein kinase TAO1 (Homo sapiens) (UniProt Q7L7X3); test: Binding affinity to wild-type human partial length TAOK1 (M1 to A320 residues) expressed in mammalian expression system assessed as residual binding level at 1 uM by Kinomescan method relative to control
Chain of Serine/threonine-protein kinase TAO1 (Homo sapiens) (Q7L7X3 whole entry, the tested form may be a part): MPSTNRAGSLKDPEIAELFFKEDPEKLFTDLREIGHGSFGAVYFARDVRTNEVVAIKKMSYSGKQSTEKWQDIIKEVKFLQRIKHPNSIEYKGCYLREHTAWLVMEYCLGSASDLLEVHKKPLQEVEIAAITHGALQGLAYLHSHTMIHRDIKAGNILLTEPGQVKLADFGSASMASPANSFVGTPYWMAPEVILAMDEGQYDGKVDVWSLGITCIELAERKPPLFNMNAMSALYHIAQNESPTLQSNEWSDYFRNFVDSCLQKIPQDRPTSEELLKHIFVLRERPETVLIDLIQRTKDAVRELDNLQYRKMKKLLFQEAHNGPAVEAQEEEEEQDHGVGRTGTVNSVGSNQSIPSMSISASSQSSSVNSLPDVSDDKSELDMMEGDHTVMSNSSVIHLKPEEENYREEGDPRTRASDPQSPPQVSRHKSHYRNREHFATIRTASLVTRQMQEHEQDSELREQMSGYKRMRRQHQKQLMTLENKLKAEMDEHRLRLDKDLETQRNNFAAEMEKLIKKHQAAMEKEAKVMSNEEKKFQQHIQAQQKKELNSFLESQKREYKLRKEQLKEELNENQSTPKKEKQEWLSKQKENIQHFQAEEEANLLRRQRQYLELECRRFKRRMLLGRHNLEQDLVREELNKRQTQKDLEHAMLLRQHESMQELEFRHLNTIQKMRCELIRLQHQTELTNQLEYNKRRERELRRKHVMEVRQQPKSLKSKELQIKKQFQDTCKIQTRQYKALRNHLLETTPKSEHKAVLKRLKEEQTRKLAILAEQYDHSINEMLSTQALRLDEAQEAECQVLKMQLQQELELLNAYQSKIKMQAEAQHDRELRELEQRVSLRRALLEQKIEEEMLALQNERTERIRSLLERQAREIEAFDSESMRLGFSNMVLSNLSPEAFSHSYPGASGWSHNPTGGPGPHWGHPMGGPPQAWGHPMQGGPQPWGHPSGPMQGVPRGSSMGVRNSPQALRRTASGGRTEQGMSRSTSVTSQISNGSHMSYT

[11] = biological target: Activated CDC42 kinase 1 (Homo sapiens) (UniProt Q07912); test: Binding affinity to wild-type human partial length TNK2 (S159 to D474 residues) expressed in bacterial expression system assessed as residual binding level at 1 uM by Kinomescan method relative to control
[12] = biological target: Cyclin-dependent kinase 15 (Homo sapiens) (UniProt Q96Q40); test: Binding affinity to wild-type human full length PFTAIRE2 (M1 to W384 residues) expressed in bacterial expression system assessed as residual binding level at 1 uM by Kinomescan method relative to control
[13] = biological target: Ephrin type-B receptor 4 (Homo sapiens) (UniProt P54760); test: Binding affinity to wild-type human partial length EPHB4 (H585 to G892 residues) expressed in bacterial expression system assessed as residual binding level at 1 uM by Kinomescan method relative to control
[14] = biological target: Myosin light chain kinase, smooth muscle (Homo sapiens) (UniProt Q15746); test: Binding affinity to wild-type human full length MYLK (M854 to E1845 residues) expressed in mammalian expression system assessed as residual binding level at 1 uM by Kinomescan method relative to control
[15] = biological target: Serine/threonine-protein kinase 25 (Homo sapiens) (UniProt O00506); test: Binding affinity to wild-type human partial length YSK1 (V14 to H295 residues) expressed in bacterial expression system assessed as residual binding level at 1 uM by Kinomescan method relative to control
[16] = biological target: Fibroblast growth factor receptor 3 (Homo sapiens) (UniProt P22607); test: Binding affinity to wild-type human partial length FGFR3 (R442 to S771 residues) expressed in bacterial expression system assessed as residual binding level at 1 uM by Kinomescan method relative to control
[17] = biological target: Serine/threonine-protein kinase 38 (Homo sapiens) (UniProt Q15208); test: Binding affinity to wild-type human partial length NDR1 (N33 to E449 residues) expressed in mammalian expression system assessed as residual binding level at 1 uM by Kinomescan method relative to control
Chain of Serine/threonine-protein kinase 38 (Homo sapiens) (Q15208 2-465 limits assumed): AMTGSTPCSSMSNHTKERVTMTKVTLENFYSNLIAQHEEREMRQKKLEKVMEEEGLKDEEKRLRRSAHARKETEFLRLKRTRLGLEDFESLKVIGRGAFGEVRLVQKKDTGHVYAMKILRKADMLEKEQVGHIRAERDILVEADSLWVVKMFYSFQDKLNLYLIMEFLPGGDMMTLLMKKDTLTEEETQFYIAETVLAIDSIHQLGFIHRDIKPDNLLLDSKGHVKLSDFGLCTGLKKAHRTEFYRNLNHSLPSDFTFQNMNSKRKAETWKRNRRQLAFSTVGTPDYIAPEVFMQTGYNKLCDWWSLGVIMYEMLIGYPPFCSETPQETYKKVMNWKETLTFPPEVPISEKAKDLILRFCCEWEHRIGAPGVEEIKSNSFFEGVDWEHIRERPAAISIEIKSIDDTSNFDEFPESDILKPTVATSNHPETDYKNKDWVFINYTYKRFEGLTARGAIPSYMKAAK

[18] = biological target: Serine/threonine-protein kinase 16 (Homo sapiens) (UniProt O75716); test: Binding affinity to wild-type human partial length STK16 (G11 to I305 residues) expressed in bacterial expression system assessed as residual binding level at 1 uM by Kinomescan method relative to control
[19] = biological target: Ephrin type-A receptor 6 (Homo sapiens) (UniProt Q9UF33); test: Binding affinity to wild-type human partial length EPHA6 (Y700 to E1046 residues) expressed in bacterial expression system assessed as residual binding level at 1 uM by Kinomescan method relative to control
Chain of Ephrin type-A receptor 6 (Homo sapiens) (Q9UF33 whole entry, the tested form may be a part): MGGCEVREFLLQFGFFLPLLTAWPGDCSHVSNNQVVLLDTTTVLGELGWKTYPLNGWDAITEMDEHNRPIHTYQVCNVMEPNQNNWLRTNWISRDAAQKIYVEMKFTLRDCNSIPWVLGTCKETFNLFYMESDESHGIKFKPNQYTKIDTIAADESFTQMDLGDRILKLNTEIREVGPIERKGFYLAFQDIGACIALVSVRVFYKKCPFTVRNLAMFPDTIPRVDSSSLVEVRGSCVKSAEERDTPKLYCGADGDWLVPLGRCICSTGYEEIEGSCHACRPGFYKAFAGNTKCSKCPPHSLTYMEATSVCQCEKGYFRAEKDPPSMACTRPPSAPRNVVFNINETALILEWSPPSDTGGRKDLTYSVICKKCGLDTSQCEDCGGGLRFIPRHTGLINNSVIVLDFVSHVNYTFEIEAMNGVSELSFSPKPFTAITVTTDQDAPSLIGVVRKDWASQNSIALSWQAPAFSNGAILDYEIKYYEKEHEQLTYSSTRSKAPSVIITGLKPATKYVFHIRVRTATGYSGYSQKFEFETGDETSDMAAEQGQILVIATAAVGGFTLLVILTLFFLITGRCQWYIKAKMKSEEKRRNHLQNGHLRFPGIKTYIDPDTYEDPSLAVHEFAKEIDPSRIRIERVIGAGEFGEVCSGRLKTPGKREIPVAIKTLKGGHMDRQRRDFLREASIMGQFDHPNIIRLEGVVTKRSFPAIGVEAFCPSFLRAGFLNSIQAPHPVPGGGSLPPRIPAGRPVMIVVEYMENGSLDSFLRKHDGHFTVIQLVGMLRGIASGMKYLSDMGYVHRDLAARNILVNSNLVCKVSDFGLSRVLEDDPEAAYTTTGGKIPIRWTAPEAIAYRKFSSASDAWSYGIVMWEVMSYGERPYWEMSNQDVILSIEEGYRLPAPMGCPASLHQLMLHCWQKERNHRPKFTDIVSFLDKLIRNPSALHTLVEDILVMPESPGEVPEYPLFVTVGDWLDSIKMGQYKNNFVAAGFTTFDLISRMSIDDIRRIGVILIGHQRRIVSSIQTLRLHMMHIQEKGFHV

[20] = biological target: Cyclin-dependent kinase 13 (Homo sapiens) (UniProt Q14004); test: Binding affinity to wild-type human partial length CDC2L5 (H675 to S1054 residues) expressed in mammalian expression system assessed as residual binding level at 1 uM by Kinomescan method relative to control
[21] = tested on: Tyrosine-protein kinase ABL1 (Homo sapiens), P00519 [Q252H]; test: Binding affinity to human phosphorylated ABL1 Q252H mutant expressed in mammalian expression system assessed as residual binding level at 1 uM by Kinomescan method relative to control
[22] = tested on: Phosphatidylinositol 4,5-bisphosphate 3-kinase catalytic subunit alpha isoform (Homo sapiens), P42336 [E542K]; test: Binding affinity to human partial length PIK3CA E542K mutant (R108 to N1068 residues) expressed in mammalian expression system assessed as residual binding level at 1 uM by Kinomescan method relative to control
[23] = biological target: Activin receptor type-1B (Homo sapiens) (UniProt P36896); test: Binding affinity to wild-type human ACVR1B (S187 to I505 residues) expressed in bacterial expression system assessed as residual binding level at 1 uM by Kinomescan method relative to control
[24] = biological target: Calcium/calmodulin-dependent protein kinase type II subunit delta (Homo sapiens) (UniProt Q13557); test: Binding affinity to wild-type human partial length CAMK2D (M1 to E329 residues) expressed in bacterial expression system assessed as residual binding level at 1 uM by Kinomescan method relative to control
Chain of Calcium/calmodulin-dependent protein kinase type II subunit delta (Homo sapiens) (Q13557 whole entry, the tested form may be a part): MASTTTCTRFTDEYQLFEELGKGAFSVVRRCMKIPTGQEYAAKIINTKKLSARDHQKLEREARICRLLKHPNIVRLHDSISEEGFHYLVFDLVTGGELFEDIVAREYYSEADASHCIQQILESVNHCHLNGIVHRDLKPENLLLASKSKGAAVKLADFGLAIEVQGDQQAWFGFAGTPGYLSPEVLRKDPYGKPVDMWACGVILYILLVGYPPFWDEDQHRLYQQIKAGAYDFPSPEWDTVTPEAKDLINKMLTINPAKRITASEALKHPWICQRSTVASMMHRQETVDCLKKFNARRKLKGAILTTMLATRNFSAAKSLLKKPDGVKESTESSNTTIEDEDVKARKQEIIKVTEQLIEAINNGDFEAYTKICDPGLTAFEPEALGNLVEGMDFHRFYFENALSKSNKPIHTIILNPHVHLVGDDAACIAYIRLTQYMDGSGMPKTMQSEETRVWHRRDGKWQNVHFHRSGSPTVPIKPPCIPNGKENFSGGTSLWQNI

[25] = biological target: Cyclin-dependent kinase-like 1 (Homo sapiens) (UniProt Q00532); test: Binding affinity to wild-type human full length CDKL1 (M1 to I358 residues) expressed in mammalian expression system assessed as residual binding level at 1 uM by Kinomescan method relative to control

## CC(C)Nc1sc(C(=O)c2ccc(Cl)s2)c(N)c1C#N
[1]
  Activity: 80%
[2]
  Activity: 98%
[3]
  Activity: 81%
[4]
  Activity: 100%
[5]
  Activity: 96%
[6]
  Activity: 84%
[7]
  Activity: 83%
[8]
  Activity: 62%
[9]
  Activity: 70%
[10]
  Activity: 100%
[11]
  Activity: 60%
[12]
  Activity: 79%
[13]
  Activity: 93%
[14]
  Activity: 71%
[15]
  Activity: 81%
[16]
  Activity: 100%
[17]
  Activity: 74%
[18]
  Activity: 85%
[19]
  Activity: 86%
[20]
  Activity: 84%
[21]
  Activity: 100%
[22]
  Activity: 77%
[23]
  Activity: 82%
[24]
  Activity: 79%
[25]
  Activity: 100%
